The values that follow come from patent publication US7445803B2, “Chromium (III) alpha amino acid complexes” (priority 2002, dated 2008).

For series [1] the following is noted: cited from earlier work.
Series [2] has as its system DNA. The note with it: cited from earlier work.
The test system of series [3] is Chinese hamster ovary cells. The note with it: cited from earlier work.
For series [4], the system named is rat skeletal muscle cultures. To be noted: rat skeletal muscle cultures in vitro; cited from earlier work.
The test system of series [5] is rat. To be noted: added to rat diet; cited from earlier work.
Series [6] deals with Humans. To be noted: dietary supplementation, males and females; cited from earlier work.
The test system of series [7] is rats. To be noted: cited from earlier work.
Series [8] in a line: pH of aqueous solution of the complex. The class given is physicochemical. To be noted: 0.1 molar in water. As for the experimental part: (§1) A 10 ml portion was diluted with 200 ml of a 0.1 molar solution of sodium bicarbonate. […] An additional 600 ml of 0.1 molar sodium bicarbonate solution was added.
(§2) A 10 ml portion was diluted with 200 ml of a 0.1 molar solution of sodium bicarbonate.
as §2

The nature of series [9]: Stability on addition of 0.1 molar sodium bicarbonate (precipitate formation). The format is physicochemical. As for the experimental part: as §1, §2, §2
For series [10] the following is noted: after oral administration; cited from earlier work.
Series [11] concerns rat isolated adipose tissue. The note with it: cited from earlier work.
For series [12], the system named is periparturient dairy cows. An excerpt:
The effects of supplementation with chromium in the form of chromium tri-L-methionine hydrochloride on performance of periparturient dairy cows were studied. Seventy-two cows were used to determine whether milk production and dry matter intake were affected by chromium tri-L-methionine hydrochloride supplementation of the diet during the periparturient period. Cows were fed either a diet high in nonforage fiber sources or high in non-fiber carbohydrates from day 21 before expected parturition until parturition and then fed a common lactating diet. Chromium tri-L-methionine hydrochloride was supplemented once daily via gelcap at doses of 0, 0.03, or 0.06 mg Cr/kg of metabolic body weight. Chromium supplementation began on day 21 before expected parturition and continued until day 28 postpartum. Cows were milked after calving according to established procedures. Feed intake was recorded daily for each cow throughout the experiment. Samples of the diet were obtained weekly and the dry matter contents were determined. Individual milk weights were recorded at each milking during the lactating phase of the experiment. Milk samples were taken from all milkings during one 24-hours period each week, composited based on the amount of milk produced at each milking, and analyzed for fat, protein, lactose, and total solids.

The subject of series [13] is rat.
Protocol: Fifty 6 weeks old rats were used in the study (25 females and 25 males). Their body weight ranged from 130 to 220 g for males and 120-190 g for females. The animals were housed in polycarbonate cages over dust-free sawdust bedding in groups of five. The cages were placed in an air-conditioned room at 22° C. and 55% relative humidity. Rats were fed pelleted complete diet ad libitum. Animals were fasted overnight before dosing and given food 3-4 hours after dosing. Animals given water ad libitum. Animals were assigned at random to one of five treatments. Two groups of five animals each, one group of males and one group of females were assigned to each treatment. The treatments were control, 250 mg/kg, 500 mg/kg, 1000 mg/kg and 2000 mg/kg doses. A solution of the compound in water was administered in a single oral dose by gastric gavage. Animals were maintained for a 14-day observation period after receiving the dose. Surviving animals were killed on day 14. The weight of animals were recorded immediately before treatment, twice weekly for the study period and at death.
The mark [14] stands for this setting: 10 ml of 0.1 molar solution + 200 ml 0.1 molar sodium bicarbonate (20 molar equivalents).
[15] abbreviates: slightly more than 2 equivalents of 0.1 molar sodium bicarbonate to a 0.1M solution.
Setting [16] is: additional 600 ml 0.1 molar sodium bicarbonate (80 molar equivalents in all).

Like-named read-outs stand apart in the source and are kept apart here.

Turning to chromium picolinate, the water solubility result in series [1] was “limited”. Besides, the DNA cleavage entry in [2] is recorded as “cleaves DNA”. Further, the chromosome damage result in series [3] is “produces chromosome damage”. In series [4], the glucose uptake entry is reported as “increased”. Moreover, in series [5], the glycation of hemoglobin entry is “prevented” and the plasma glucose entry is given as “significant decrease”. Further, the lean body mass entry in [6] is listed as “significant increase”. Besides, in [7] (rat, in vivo), the toxicity in rats entry is reported as “lack of toxicity”.

On to “Chromium (III) Tri-leucinate Hydrochloride [Example 2]”, for which the “pH of a 0.1 molar solution in water” value in series [8] is reported as 3.996. Besides, in [9] (setting [14]), the “pH of the solution after sodium bicarbonate” value (from here on “pH of the solution”) was found to be 7.987 and the precipitate formation result is listed as “No precipitate was formed”.

As to `[Cl][Cr]([Cl])[Cl]` [chromium chloride, reference compound], in series [9] (setting [15]), the “pH of the mixture” value is reported as 4.356 and the precipitate formation entry was “voluminous precipitate”. Moreover, in series [7] (rats), the toxicity in rats result was “lack of toxicity”.

For `CC(=O)/C=C(/C)[O-].CC(=O)/C=C(/C)[O-].CC(=O)/C=C(/C)[O-].[Cr+3]` [Chromium Acetylacetonate], the “absorption from the gastrointestinal tract” value in [10] was “rapidly absorbed”.

Take chromium dinicotinate: in [11], the insulin activity entry is listed as “potentiated”.

As for “Chromium (III) Tri-methionate Hydrochloride [Example 1]”, the “pH of a 0.1 molar solution in water” value in [8] stood at 4.078. Moreover, in series [9] (setting [14]), the “pH of the solution” value stood at 8.097 and the precipitate formation entry is listed as “No precipitate was formed”. For the same compound, in series [9] (setting [16]), the “pH of the solution” value was 8.354 and the precipitate formation entry was “No precipitate was formed”. In [12] (0.03 mg/kg BW^.75), the “% Milk Fat” value was 4.41%, the “% Milk Lactose” value is on record as 4.69%, the “% Milk Protein” value was found to be 3.37% and the “% Milk Solids” value worked out at 13.39%. For the same compound, in series [12] (0.03 mg/kg BW^.75), the “Milk Fat” value is recorded as 1.76 kg/day, the “Milk Lactose” value is given as 1.91 kg/day, the “Milk Production” value was determined as 40.6 kg/day and the “Milk Protein” value is reported as 1.33 kg/day. In series [12] (0.03 mg/kg BW^.75), the “Milk Solids” value was 5.37 kg/day, the “Postpartum Dry Matter Intake” value is recorded as 18.9 kg/day and the “Prepartum Dry Matter Intake” value is 13.9 kg/day. Further, in series [12] (0.06 mg/kg BW^.75), the “% Milk Fat” value came to 4.33%, the “% Milk Lactose” value stood at 4.61%, the “% Milk Protein” value turned out to be 3.15% and the “% Milk Solids” value is given as 13.03%. In series [12] (0.06 mg/kg BW^.75), the “Milk Fat” value stood at 1.81 kg/day, the “Milk Lactose” value is listed as 1.98 kg/day, the “Milk Production” value was 42.8 kg/day and the “Milk Protein” value is 1.31 kg/day. In [12] (0.06 mg/kg BW^.75), the “Milk Solids” value is 5.51 kg/day, the “Postpartum Dry Matter Intake” value was determined as 19.4 kg/day and the “Prepartum Dry Matter Intake” value is reported as 13.7 kg/day. In addition, in [12] (diet supplementation, 0.03 or 0.06 mg Cr/kg metabolic body weight), the “effect on dry matter intake in cows” value is listed as “did not affect”. For the same compound, the body weight gain entry in series [13] (2000 mg/kg dose, 4000 folds the recommended dose) was “slight decrease”. Also, the “food consumption compared to control” value in series [13] (1000 and 2000 mg/kg doses) is given as “dose related decrease”. Besides, the “gain in body weight” value in series [13] (dose 2000 folds the recommended dose) is “not associated with a decrease”. The toxicity in rats result in series [13] (doses used / high doses) is on record as “non-toxic”. The “decrease in body weight gain” value in [13] (male rats, 2000 mg/kg single oral dose) came to 5%. For the same compound, the “macroscopic abnormalities at necropsy” value in series [13] (necropsied on day 14 after the oral dose) is “no macroscopic abnormalities”. In addition, in series [13] (single oral dose 250-2000 mg/kg, 14-day observation), the mortality result was “No animals died”. Also, the treatment-related clinical signs result in series [13] (single oral dose, any of the dose levels (250-2000 mg/kg)) is given as “no treatment-related clinical signs”. Besides, the toxicity entry in [13] (single oral dose, dose levels 1000 folds the recommended dose in pigs) is on record as “did not induce any toxicity”.
